Reference: patent publication US20260231936A1, “COMPOUNDS AND COMPOSITIONS THAT ATTRACT THE SPECIES PSEUDOCOCCUS LONGISPINUS, ATTRACTANT DEVICE AND METHODS FOR CONTROLLING AND/OR MONITORING THE PEST” (Universitat Politècnica de València, priority 2023, published 2026)

What was measured:
[1] = test system: Pseudococcus longispinus males; assay: Second field trial of attractant activity, persimmon orchard in L'Alcúdia; format: in vivo; conditions: for Attractant activity of baited devices (in words): 250 μg, versus traps without attractant (A); for Captures (mean) of P. longispinus males: rubber septum carrier loaded with 250 μg, white sticky cardboard trap, four blocks
Protocol: (§1) The response of Pseudococcus longispinus males to 2-(1,5-dimethyl-4-methylenecyclopent-2-en-1-yl)ethyl acetate was evaluated by means of a field trial carried out in a persimmon orchard, located in the town of Alginet (Valencia, Spain). Six blocks of 3 devices were installed: (A) a device with a carrier, without attractant and with a trap consisting of a white sticky cardboard (95×150 mm), (B) a device with a carrier loaded with 250 μg of the described substance by Miller et al. in 2009 (e.g. 2-(1,5,5-trimethylcyclopent-2-en-1-yl)ethyl acetate) and a trap consisting of a white sticky cardboard, and (C) a carrier device loaded with 250 μg of 2-(1,5-dimethyl-4-methylenecyclopent-2-en-1-yl)ethyl acetate and a trap consisting of a white sticky cardboard. Within each block, the devices were placed at a distance of 10 m from each other, while the distance between blocks was at least 30 m. The carriers loaded with the substances were of the rubber septa type and were inserted in the center of the trap.
(§2) The captures obtained in each of the traps were reviewed biweekly and the captured individuals were taken to the laboratory to be identified and counted.
(§3) The number of males captured per trap and per day was compared using a variance analysis (ANOVA; LSD test for comparison of means, P<0.05), prior transformation (ln(x+1)) of the data in order to homogenize the variance.
A second field trial was conducted to evaluate the attractant activity of 2-(1,5-dimethyl-4-methylenecyclopent-2-en-1-yl)ethyl propionate, in a persimmon orchard located in L'Alcúdia (Valencia, Spain). Four blocks of 3 devices were installed: (A) a device with a carrier, without attractant and with a trap consisting of a white sticky cardboard (95×150 mm), (B) a device with a carrier loaded with 250 μg of 2-(1,5-dimethyl-4-methylenecyclopent-2-en-1-yl)ethyl propionate and a trap consisting of a white sticky cardboard, and (C) a carrier device loaded with 250 μg of 2-(1,5-dimethyl-4-methylenecyclopent-2-en-1-yl)ethyl acetate and a trap consisting of a white sticky cardboard. The rest of trial conditions were the same as those described above.

[2] = test system: populations of P. longispinus; assay: Preliminary trap tests by UPV in persimmon cultivation, Valencian Community; format: in vivo, Pseudococcus longispinus
Text: The sex pheromone of the species P. longispinus was described by Millar et al. (Sex pheromone of the longtailed mealybug: a new class of monoterpene structure. Organic Letters 2009, 11, 2683-2685) as the compound 2-(1,5,5-trimethylcyclopent-2-en-1-yl)ethyl acetate, in populations of the species collected in the United States. However, this substance turned out to be ineffective in attracting populations of P. longispinus in persimmon cultivation in the Valencian Community. […] This is not uncommon, and this phenomenon has been described for the mealybug P. ficus, whose Californian populations produce a single-component pheromone, while Israeli populations produce an additional compound (Zada, A., Dunkelblum, E., Assael, F., Harel, M., Cojocaru, M. & Mendel, Z. (2003) Sex pheromone of the vine mealybug, Planococcus ficus in Israel: occurrence of a second component in a mass-reared population. Journal of Chemical Ecology, 29, 977-988).

[3] = test system: Pseudococcus longispinus males; assay: Field trial of attraction response of males, persimmon orchard in Alginet; format: in vivo; conditions: for Captures (mean) of P. longispinus males: rubber septum carrier loaded with 250 μg, white sticky cardboard trap, six blocks, number of males captured per trap and per day compared
Protocol: as §1, §2, §3

[4] = Analysis of attractant content of the carrier after field exposure (emission); format: physicochemical
Protocol: as §1, with “Alginet” left out, “trap. […] Therefore, the average emission during those 21 days is 5.52±1.20 μg/day.” for “trap.”

Final content of the substance in the carrier ([4]; after 21 days, carrier initially loaded with 250 μg) [µg]	Average emission ([4]; during 21 days, rubber septum loaded with 250 μg) [µg/day]	SMILES	Attractant activity of baited devices (in words) [1]	Captures (mean) of P. longispinus males [1]	Attraction of populations of P. longispinus (in words) ([2]; persimmon cultivation in the Valencian Community)	Males captured by traps baited with virgin females relative to traps baited with the synthetic pheromone ([2]; preliminary tests, virgin females of P. longispinus as comparator) [times]	Captures (mean) of P. longispinus males [3]	Attractive power of baited devices (in words) ([3]; 250 μg, versus traps without attractant (A) and pheromone described by Millar et al. (B))
		C=C1C=CC(C)(CCOC(=O)CC)C1C (centres unmarked) [Propionate of formula I (B), 2-(1,5-dimethyl-4-methylenecyclopent-2-en-1-yl)ethyl propionate]	significant attractant activity	89.07 b				
		CC(=O)OCCC1(C)C=CCC1(C)C (centres unmarked) [Millar et al. (B), 2-(1,5,5-trimethylcyclopent-2-en-1-yl)ethyl acetate]			ineffective	100	0.21 a	
134	5.52 ± 1.20	C=C1C=CC(C)(CCOC(C)=O)C1C (racemic) [Acetate of formula I (C), 2-(1,5-dimethyl-4-methylenecyclopent-2-en-1-yl)ethyl acetate]	highest level of captures	406.58 c			19.35 b	significantly higher attractive power
